From patent publication US20080194656A1, “Benzotriazole Derivatives as Cannabinoid Receptor Antagonists” (priority 2005, published 2008)

Experiments:
[1] = target: T1, Human Cb-1 receptor (transfected CHO-K1 cell membranes) (Homo sapiens, UniProt P21554); test: Cb-1 competition receptor binding in cell membranes ([3H]CP55,940 displacement); settings: 3H-CP55,940 0.5 nM, 1 hour at 25° C.; for IC50: read-out: Example C1 Binding pIC50 (converted)
T1 construct: host or cells: CHO-K1
Method: (§1) Human Cb-1 transfected CHO-K1 cells (Euroscreen; Cat # ES-110-C; hCB1-D1; accession n′ Swissprot X54937) were maintained as described previously (Felder et al., 1995 & 1998). For membrane preparation, cells were cultured in DMEM/Ham's F12 medium containing 10% (v/v) heat inactivated FCS, 100 U/ml penicillin and 100 μg/ml streptomycin, 100 μg/ml pyruvate and 292 μg/ml L-glutamine under 5% CO2 at 37° C. in roller bottles, with medium changed 3 times a week. When 90% confluent, cells collected by trypsinisation and re-seeded at 1:10 or 1:20 dilutions to fresh roller bottles. For measurement of cAMP formation, cells were cultured to 90% confluency in Falcon T175 flasks.
Prior to membrane preparation, confluent cells were treated with 5 mM butyrate for 24 hours. Medium was aspirated and cells were scraped from bottles in 50 ml homogenization buffer consisting of 15 mM Tris-HCl, pH 7.4 containing 2 mM MgCl2, 0.3 mM EDTA and 1 mM EGTA. The cells were then centrifuged for 10 minutes at 1700×g at 4° C. and homogenized in 20 ml same buffer with an Ultra Turrax. The crude membrane pellet was collected by two consecutive centrifugation steps at 20,000×g for 10 min and for 20 min at 25,000×g respectively, separated by a washing/homogenization step in 10 ml homogenization buffer. Final cell pellets were resuspended in a volume of 6 ml/roller bottle in stock buffer consisting of 7.5 mM Tris-HCl, pH 7.4, containing 12.5 mM MgCl2, 0.3 mM EDTA, 1 mM EGTA and 250 mM sucrose. Protein content was assayed by the BioRad method (Bradford, 1976).
Competition binding assays were performed in triplicate in a final volume of 0.5 ml containing incubation buffer (50 mM Tris-HCl, pH 7.4 containing 2.5 mM EDTA and 0.5% (w/v) BSA), 50 μl ^3H-CP55,940 (0.5 nM final), 0.4 ml transfected CHO-K1 membrane proteins (60 μg/ml) in the presence or absence of test compound. Non-specific binding determined using 1 μM CP55,940. The samples were incubated for 1 hour at 25° C., being terminated by rapid filtration on GF/C filters presoaked in 0.1% polyethylenimine, using a Unifilter-96 Harvester (PerkinElmer N.V./S.A. Belgium). Filters were washed 6 times with cold washing buffer (50 mM Tris-HCl, pH 7.4 containing 0.1% BSA), plates air-dried overnight before bound [^3H]CP55,940 was measured by liquid scintillation counting using a TopCount NXT microplate scintillation counter (Packard BioScience/ PerkinElmer N.V./S.A. Belgium). IC50 values were determined by a single-site binding equation (GraphPad Prism, San Diego, Calif., U.S.A.).

[2] = target: T2, Cb-1 receptor stably expressed in CHO-K1 cells (Homo sapiens, UniProt P21554); test: Cyclic AMP accumulation (HTRF cAMP assay, antagonism of CP55940); assay type: cell-based; settings: forskolin and CP55940 (agonist), 30 min at 25° C.; for IC50: read-out: Example C2 cAMP (antagonism) pIC50 (converted)
T2 construct: host or cells: CHO-K1
Method: as §1
Using the commercially available dynamic homogenous time-resolved fluorescence cAMP assay, the cAMP measurements on CHO-K1 cells that stably express the Cb-1 receptor were performed. Cells were detached from flasks using 3 ml EDTA (0.04% (w/v) in PBS) and resuspended in PBS (without Ca^2+ and Mg^2+) and centrifuged at 500×g for 5 min. Cell pellet was resuspended in stimulation buffer (HBSS medium containing 1 mM IBMX, 5 mM Hepes, 10 mM MgCl2 and 0.1% (w/v) BSA) and were dispensed into a black 96 well plate at a cell density of 20000 cells per well. After 30 min at 25° C., an equal volume of stimulation buffer containing forskolin and CP55940 (agonist) and/or a Cb-1 antagonist was added to the cells. After 30 min incubation at 25° C., cAMP detection was performed by addition of an equal volume of cAMP-XL665 and anti-cAMP-cryptate conjugates. The plate was incubated for a further 60 min at 25° C. and then measured with Discovery (PerkinElmer N.V./S.A. Belgium).

[3] = target: T1, Human Cb-1 receptor (transfected CHO-K1 cell membranes); test: Cb-1 competition receptor binding in cell membranes ([3H]CP55,940 displacement); settings: statement on the enantiomers of the racemate, no test named
[4] = system: food intake in rats and mice; test: Feeding experiments, acute dose-response on food intake; assay type: in vivo; settings: oral single dose, food intake 1 h after lights out
Method: Male Sprague Dawley rats (weighing 250-300 g at the time of experiment) were obtained from Charles River (Sulzfeld, Kisslegg, Germany). Male C57Bl/6J Rj mice (weighing 25-30 g at the time of experiments) were obtained from Janvier (Le Genest-St-Isle, France). All animals had free access to water and were individually housed under 12-h light:dark cycle (lights on at 22:00 h) and at a temperature of 19-22° C. and 35-40% humidity in Techniplast IVC cages adapted to fit external food hoppers. Rats and mice were fed a standard purified diet containing 10% kcal fat (Dyets, Inc. Bethlehem, USA; or Research diets, New Brunswick, N.J., USA). All experiments were carried out in accordance with the European Communities Council Directives (86/609/EEC) and were approved by the local ethical committee.
An acute dose-response analysis for each compound was performed. All rats and mice were randomly assigned and orally dosed with either vehicle (10% cyclodextran containing 0.9% (w/v) saline) or vehicle containing a single concentration of compound (0.16, 0.63, 2.50, 10.0, 40.0 mg/kg at 10 ml/kg) so that the average latency from time of drug administration and lights out was 45 minutes, with 6 animals per group. Food intake was measured 1, 2, 4, 6 and 24 hours after lights out.

T2 sequence (P21554 whole entry): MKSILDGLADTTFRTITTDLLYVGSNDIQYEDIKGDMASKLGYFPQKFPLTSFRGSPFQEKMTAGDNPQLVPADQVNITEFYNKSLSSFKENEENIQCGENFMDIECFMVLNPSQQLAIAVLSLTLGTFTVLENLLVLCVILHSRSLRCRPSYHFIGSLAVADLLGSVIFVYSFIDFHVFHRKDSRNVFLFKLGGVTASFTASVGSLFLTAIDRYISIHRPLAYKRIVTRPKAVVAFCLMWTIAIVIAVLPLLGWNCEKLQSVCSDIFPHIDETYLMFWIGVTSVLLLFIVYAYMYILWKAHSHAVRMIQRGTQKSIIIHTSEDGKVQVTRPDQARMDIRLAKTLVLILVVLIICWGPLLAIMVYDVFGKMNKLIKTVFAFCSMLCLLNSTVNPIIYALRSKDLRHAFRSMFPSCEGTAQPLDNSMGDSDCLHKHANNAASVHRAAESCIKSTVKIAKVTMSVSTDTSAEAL
T1 sequence (P21554 whole entry): as above

| Structure (SMILES) | Example C1 Binding pIC50 [1] | IC50 [1] [nM] | further results |
| --- | --- | --- | --- |
| CC(c1ccccc1)n1nnc2ccc(C(c3ccc(Cl)cc3)n3ccnc3)cc21 (stereo not drawn) [Compound 11] | 5.67 | – | – |
| CC(C)n1nnc2ccc(C(c3ccc(Cl)cc3)n3cncn3)cc21 (stereo not drawn) [Compound 7] | 6.69 | – | Example C2 cAMP (antagonism) pIC50 [2]: 6.9 |
| Clc1ccc([C@H](c2ccc3nnn(C4CCCCC4)c3c2)n2cncn2)cc1 [Compound 2, 1H-Benzotriazole, (−)-6-[(4-chlorophenyl)-1H-1,2,4-triazol-1-ylmethyl]-1-cyclohexyl-] | – | – | active as a CB1 modulator [3]: active |
| c1ccc(C(c2ccc3nnn(C4CCCCC4)c3c2)n2ccnc2)cc1 (stereo not drawn) [Compound 9] | 6.05 | – | Example C2 cAMP (antagonism) pIC50 [2]: 5.79 |
| Clc1ccc(C(c2ccc3nnn(Cc4ccccc4)c3c2)n2ccnc2)cc1 (stereo not drawn) [Compound 13] | 5.61 | – | – |
| Clc1ccc(C(c2ccc3nnn(C4CCCCC4)c3c2)n2cncn2)cc1 (racemic) [Intermediate 7, 1H-Benzotriazole, 6-[(4-chlorophenyl)-1H-1,2,4-triazol-1-ylmethyl]-1-cyclohexyl-] | – | 288 | ED50 ([4]; po, 1 h, read-out: Example C3 Food intake at 1 h ED50): 3.28 mg/kg; IC50 [2]: 36.3 nM |
| CC(C)n1nnc2ccc(C(c3ccc(Cl)cc3)n3ccnc3)cc21 (stereo not drawn) [Compound 12] | 5.53 | – | – |
| CC(C)CCn1nnc2ccc(C(c3ccc(Cl)cc3)n3ccnc3)cc21 (stereo not drawn) [Compound 4] | – | 933 | IC50 [2]: 339 nM |
| Clc1ccc([C@H](c2ccc3nnn(C4CCCCC4)c3c2)n2cncn2)cc1 (single isomer, unassigned) [Compound 1] | – | 8910 | Example C3 Food intake at 1 h ED50 [4]: >100 mg/kg |

Continued, in another order:

| Example C1 Binding pIC50 [1] | IC50 [1] [nM] | Structure (SMILES) | further results |
| --- | --- | --- | --- |
| – | 5370 | Cn1nnc2ccc(C(c3ccc(Cl)cc3)c3nccs3)cc21 (stereo not drawn) [Compound 6] | – |
| – | 141 | Clc1ccc([C@H](c2ccc3nnn(C4CCCCC4)c3c2)n2cncn2)cc1 (single isomer, unassigned) [Compound 2, 1H-Benzotriazole, (−)-6-[(4-chlorophenyl)-1H-1,2,4-triazol-1-ylmethyl]-1-cyclohexyl-] | Example C3 Food intake at 1 h ED50 [4]: 2.69 mg/kg |
| 6.45 | – | CCCCn1nnc2ccc(C(c3ccc(Cl)cc3)n3cncn3)cc21 (stereo not drawn) [Compound 8] | Example C2 cAMP (antagonism) pIC50 [2]: 6.62 |
| 6.28 | – | Clc1ccc(C(c2ccc3nnn(-c4ccccc4)c3c2)n2ccnc2)cc1 (stereo not drawn) [Compound 10] | Example C2 cAMP (antagonism) pIC50 [2]: 6.38 |
| – | 832 | Clc1ccc(Cn2nnc3ccc(C(c4ccc(Cl)cc4)n4ccnc4)cc32)cc1 (stereo not drawn) [Compound 5] | IC50 [2]: 955 nM |
